# Test results reported in EP0326418A1, “GRF analogs” (THE UPJOHN COMPANY, priority 1988, dated 1989).
# Like-named read-outs stand apart in the source and are kept apart here. Where a SMILES comes first, the peptide text is derived from it. [ ]: non-standard residue; d: D form. The star is where a group is joined. Desaminotyrosyl = O=C(CCc1ccc(O)cc1)*; Cya = N[C@@H](CS(=O)(=O)O)C(=O)O
# How the values were obtained:
# [1] = tested on: bovine anterior pituitary cell culture; type: cell-based
# [2] = proteolytic stability in bovine plasma (HPLC, modified Frohman method); conditions: bovine plasma
# [3] = another assay, potency as a fraction of bGRF(1-44)NH₂
remaining at 1 h [2] [%],Molecule,the potency of bGRF(1-44)NH₂ [1],"the potency of bGRF(1-44)NH₂ [1, 3]","potency (in words) ([1]; contemplated, compound not tested)"
–,"CC[C@H](C)[C@H](NC(=O)[C@H](C)NC(=O)[C@H](CS(=O)(=O)O)NC(=O)[C@H](C)NC(=O)[C@@H](N)Cc1ccc(O)cc1)C(=O)N[C@@H](Cc1ccccc1)C(=O)N[C@H](C(=O)N[C@@H](CC(N)=O)C(=O)N[C@@H](CO)C(=O)N[C@@H](Cc1ccc(O)cc1)C(=O)N[C@@H](CCCNC(=N)N)C(=O)N[C@@H](CCCCN)C(=O)N[C@H](C(=O)N[C@@H](CC(C)C)C(=O)NCC(=O)N[C@@H](CCC(N)=O)C(=O)N[C@@H](CC(C)C)C(=O)N[C@@H](CO)C(=O)N[C@@H](C)C(=O)N[C@@H](CCCNC(=N)N)C(=O)N[C@@H](CCCCN)C(=O)N[C@@H](CC(C)C)C(=O)N[C@@H](CC(C)C)C(=O)N[C@@H](CCC(N)=O)C(=O)N[C@@H](CS(=O)(=O)O)C(=O)N[C@H](C(=O)N[C@@H](CC(C)C)C(=O)N[C@@H](CC(N)=O)C(=O)N[C@@H](CCCNC(=N)N)C(=O)N[C@@H](CCC(N)=O)C(=O)N[C@@H](CCC(N)=O)C(=O)NCC(N)=O)[C@@H](C)CC)C(C)C)[C@@H](C)O [Compound 2, Cya^3,25, Leu²⁷bGRF(1-32)NH₂] (H-YA[Cya]AIFTNSYRKVLGQLSARKLLQ[Cya]ILNRQQG-NH2)",0.11,–,–
76,"CC[C@H](C)[C@H](NC(=O)[C@H](C)NC(=O)[C@H](CS(=O)(=O)O)NC(=O)[C@H](C)NC(=O)CCc1ccc(O)cc1)C(=O)N[C@@H](Cc1ccccc1)C(=O)N[C@H](C(=O)N[C@@H](CC(N)=O)C(=O)N[C@@H](CO)C(=O)N[C@@H](Cc1ccc(O)cc1)C(=O)N[C@@H](CCCNC(=N)N)C(=O)N[C@@H](CCCCN)C(=O)N[C@H](C(=O)N[C@@H](CC(C)C)C(=O)NCC(=O)N[C@@H](CCC(N)=O)C(=O)N[C@@H](CC(C)C)C(=O)N[C@@H](CO)C(=O)N[C@@H](C)C(=O)N[C@@H](CCCNC(=N)N)C(=O)N[C@@H](CCCCN)C(=O)N[C@@H](CC(C)C)C(=O)N[C@@H](CC(C)C)C(=O)N[C@@H](CCC(N)=O)C(=O)N[C@@H](CC(=O)O)C(=O)N[C@H](C(=O)N[C@@H](CC(C)C)C(=O)N[C@@H](CC(N)=O)C(=O)N[C@@H](CCCNC(=N)N)C(=O)N[C@@H](CCC(N)=O)C(=O)N[C@@H](CCC(N)=O)C(=O)NCC(N)=O)[C@@H](C)CC)C(C)C)[C@@H](C)O [Compound 5, Desamino-Tyr¹, Cya³, Leu²⁷-bGRF(1-32)NH₂] (Desaminotyrosyl-A[Cya]AIFTNSYRKVLGQLSARKLLQDILNRQQG-NH2)",1.01,–,–
51,"CC[C@H](C)[C@H](NC(=O)[C@H](C)NC(=O)[C@H](CS(=O)(=O)O)NC(=O)[C@@H](C)NC(=O)CCc1ccc(O)cc1)C(=O)N[C@@H](Cc1ccccc1)C(=O)N[C@H](C(=O)N[C@@H](CC(N)=O)C(=O)N[C@@H](CO)C(=O)N[C@@H](Cc1ccc(O)cc1)C(=O)N[C@@H](CCCNC(=N)N)C(=O)N[C@@H](CCCCN)C(=O)N[C@H](C(=O)N[C@@H](CC(C)C)C(=O)NCC(=O)N[C@@H](CCC(N)=O)C(=O)N[C@@H](CC(C)C)C(=O)N[C@@H](CO)C(=O)N[C@@H](C)C(=O)N[C@@H](CCCNC(=N)N)C(=O)N[C@@H](CCCCN)C(=O)N[C@@H](CC(C)C)C(=O)N[C@@H](CC(C)C)C(=O)N[C@@H](CCC(N)=O)C(=O)N[C@@H](CC(=O)O)C(=O)N[C@H](C(=O)N[C@@H](CC(C)C)C(=O)N[C@@H](CC(N)=O)C(=O)N[C@@H](CCCNC(=N)N)C(=O)N[C@@H](CCC(N)=O)C(=O)N[C@@H](CCC(N)=O)C(=O)NCC(N)=O)[C@@H](C)CC)C(C)C)[C@@H](C)O [Compound 6, Desamino-Tyr¹, D-Ala²,, Cya³, Leu²⁷-bGRF(1-32)NH₂] (Desaminotyrosyl-[dA][Cya]AIFTNSYRKVLGQLSARKLLQDILNRQQG-NH2)",0.26,–,–
–,"CC[C@H](C)[C@H](NC(=O)[C@H](C)NC(=O)[C@H](CS(=O)(=O)O)NC(=O)[C@@H](C)NC(=O)CCc1ccc(O)cc1)C(=O)N[C@@H](Cc1ccccc1)C(=O)N[C@H](C(=O)N[C@@H](CC(N)=O)C(=O)N[C@@H](CO)C(=O)N[C@@H](Cc1ccc(O)cc1)C(=O)N[C@@H](CCCNC(=N)N)C(=O)N[C@@H](CCCCN)C(=O)N[C@H](C(=O)N[C@@H](CC(C)C)C(=O)N[C@@H](C)C(=O)N[C@@H](CCC(N)=O)C(=O)N[C@@H](CC(C)C)C(=O)N[C@@H](CO)C(=O)N[C@@H](C)C(=O)N[C@@H](CCCNC(=N)N)C(=O)N[C@@H](CCCCN)C(=O)N[C@@H](CC(C)C)C(=O)N[C@@H](CC(C)C)C(=O)N[C@@H](CCC(N)=O)C(=O)N[C@@H](CC(=O)O)C(=O)N[C@H](C(=O)N[C@@H](CC(C)C)C(=O)N[C@@H](CC(N)=O)C(=O)N[C@@H](CCCNC(=N)N)C(=O)N[C@@H](CCC(N)=O)C(=O)N[C@@H](CCC(N)=O)C(=O)NCC(N)=O)[C@@H](C)CC)C(C)C)[C@@H](C)O [Compound 10, Desamino-Tyr¹, D-Ala², Cya³, Ala¹⁵, Leu²⁷-bGRF(1-32)NH₂] (Desaminotyrosyl-[dA][Cya]AIFTNSYRKVLAQLSARKLLQDILNRQQG-NH2)",1.40,–,–
67,"CC[C@H](C)[C@H](NC(=O)[C@H](C)NC(=O)[C@H](CS(=O)(=O)O)NC(=O)[C@H](C)NC(=O)CCc1ccc(O)cc1)C(=O)N[C@@H](Cc1ccccc1)C(=O)N[C@H](C(=O)N[C@@H](CO)C(=O)N[C@@H](CO)C(=O)N[C@@H](Cc1ccc(O)cc1)C(=O)N[C@@H](CCCNC(=N)N)C(=O)N[C@@H](CCCNC(=N)N)C(=O)N[C@H](C(=O)N[C@@H](CC(C)C)C(=O)N[C@@H](C)C(=O)N[C@@H](CCC(N)=O)C(=O)N[C@@H](CC(C)C)C(=O)N[C@@H](CO)C(=O)N[C@@H](C)C(=O)N[C@@H](CCCNC(=N)N)C(=O)N[C@@H](CCCNC(=N)N)C(=O)N[C@@H](CC(C)C)C(=O)N[C@@H](CC(C)C)C(=O)N[C@@H](CCC(N)=O)C(=O)N[C@@H](CC(=O)O)C(=O)N[C@H](C(=O)N[C@@H](CC(C)C)C(=O)N[C@@H](CO)C(=O)N[C@@H](CCCNC(=N)N)C(=O)N[C@@H](CCC(N)=O)C(=O)N[C@@H](CCC(N)=O)C(=O)NCC(N)=O)[C@@H](C)CC)C(C)C)[C@@H](C)O [Compound 12, DesaminoTyr¹, Cya³, Ser⁸, Arg¹², Ala¹⁵, Leu²⁷, Ser²⁸, bGRF(1-32)NH₂] (Desaminotyrosyl-A[Cya]AIFTSSYRRVLAQLSARRLLQDILSRQQG-NH2)",–,0.54,–
65,"CC[C@H](C)[C@H](NC(=O)[C@H](C)NC(=O)[C@H](CC(=O)O)NC(=O)[C@H](C)NC(=O)CCc1ccc(O)cc1)C(=O)N[C@@H](Cc1ccccc1)C(=O)N[C@H](C(=O)N[C@@H](CO)C(=O)N[C@@H](CO)C(=O)N[C@@H](Cc1ccc(O)cc1)C(=O)N[C@@H](CCCNC(=N)N)C(=O)N[C@@H](CCCNC(=N)N)C(=O)N[C@H](C(=O)N[C@@H](CC(C)C)C(=O)N[C@@H](C)C(=O)N[C@@H](CCC(N)=O)C(=O)N[C@@H](CC(C)C)C(=O)N[C@@H](CO)C(=O)N[C@@H](C)C(=O)N[C@@H](CCCNC(=N)N)C(=O)N[C@@H](CCCNC(=N)N)C(=O)N[C@@H](CC(C)C)C(=O)N[C@@H](CC(C)C)C(=O)N[C@@H](CCC(N)=O)C(=O)N[C@@H](CS(=O)(=O)O)C(=O)N[C@H](C(=O)N[C@@H](CC(C)C)C(=O)N[C@@H](CO)C(=O)N[C@@H](CCCNC(=N)N)C(=O)N[C@@H](CCC(N)=O)C(=O)N[C@@H](CCC(N)=O)C(=O)NCC(N)=O)[C@@H](C)CC)C(C)C)[C@@H](C)O [Compound 14, DesaminoTyr¹, Ser⁸, Arg¹², Ala¹⁵, Cya²⁵, Leu²⁷, Ser²⁸, bGRF(1-32)NH₂] (Desaminotyrosyl-ADAIFTSSYRRVLAQLSARRLLQ[Cya]ILSRQQG-NH2)",–,1.21,–
–,"DesaminoTyr¹, Cya³, Ser⁸, Arg¹², Ala¹⁵, Arg²¹, Leu²⁷, Ser²⁸, Hse³³ bGRF(1-33)lactone [Compound 20]",–,–,high potency
